Data on 1 compound can be found in patent publication US10959998B2, “Pharmaceutical use and pharmaceutical composition of pyrroloquinoline quinine, its derivatives and/or its salts” (priority 2015, dated 2021).

Marks after values point to notes of the source that are not given here.

For test [1], the system named is infiltration of endometrial stroma and glands into myometrium. The experiment in a line: Adenomyosis mouse model created with tamoxifen, pathological section. It is filed as in vivo, mice. On the procedure: Disodium salt of PQQ was used in the present experiment (PQQ-Na2, donated by MITSUBISHI gas chemical (MGC), Japan). The salt was dissolved with water and the concentration of its mother liquid is 1 mg/mL.
In the present Example, the mouse model of adenomyosis was created with tamoxifen. This method is easy to operate, the rate of molding can reach 100%, and the difference between the model mouses caused by the operation is small. At 2˜5 days after birth (the birth day was the first day), the mice were fed with 5 ul/(g·BW) peanut oil/lecithin/condensed milk mixture (volume ratio 2:0.2:3) supplemented with 0.2 mg/ml tamoxifen (produced by shanghai Fudan Fuhua Pharmaceutical Co, Ltd.) by drip feeding. In the negative control group, the mice were fed with peanut oil/lecithin/condensed milk mixture (volume ratio 2:0.2:3), with no tamoxifen added. All the mice were exposed to light for 12 h/day, and were reared by maternal lactation during 1-21 days of age. After 22 days of birth, the mice were separated with mother mice, and the female mice were reserved for the next experiment.
After 3 months, 7 model mice were killed after anesthesia. […] The remaining model mice were divided into 5 groups with 20 mice in each group. One of the groups was chosen as model control group (fed with normal water). The drinking water for other group were supplemented with PQQ (1 mg/kg/day), NAC (10 mg/kg/day), PQQ (1 mg/kg/day) +NAC (10 mg/kg/day) (denoted by P+N (H)); PQQ (0.2 mg/kg/day) +NAC (5 mg/kg/day) (denoted by P+N (L)).
After treatment with drugs for 4 weeks, the mice were killed by anesthesia. The uterus was surgically removed and the invasion of endometria into myometrium was analyzed by the pathological section.

In test [2] the test system is hydrogen peroxide (H2O2) in endometrial stromal cells. As to the kind of experiment: Determination of hydrogen peroxide (H2O2) content. It is filed as cell-based, human. The following applies: 18 h. The procedure:
Superoxide anion (O2.^−) assay kit was purchased from Nanjing Jiancheng Bioengineering Insitute; Hydroxyl free radical assay kit was purchased from Shanghai Xinyu Biological Technology Co., Ltd., Hydrogen Peroxide Assay Kit was purchased from Beyotime Biotechnology Research Institute. The cells were seeded in 6-well cell culture plates and incubated for 24 h after the cells adhered to the plate. Three different concentrations PQQ (30 nm, 300 nm and 3 μm) were added to the cultures respectively. After additional 18 h incubation, the cells were lysed using the lysis buffer contained in reagent kit, centrifuged at 12000×g for 5 min at 4° C. 50 μL of sample supernatant was mixed with 100 μL detection solution, rested 30 min at room temperature. The optical density at wavelength 560 nm was measured.

Test [3] deals with ectopic endometrial stromal cells. As to the kind of experiment: MTT cell proliferation of ectopic endometrial stromal cells. In kind it is cell-based, human. On the procedure: Endometrial tissues were surgically isolated from patients with chocolate cyst of ovary, washed 2 to 3 times with PBS supplemented with antibiotics in ultra-clean cabinet, and cut into tiny pieces (about 1 mm^3 in size) with aseptic scissors. The tissues were digested with 1 mg/ml collagenase type I for 30 to 90 min at 37° C., and continually digested with Dnase I (final concentration of 15 U/ml, 2% Dnase I) for another 30 min. The digested tissues were filtered thorough 60-mesh stainless steel filter cell strainer to remove the undigested cell tissues, and were further filtered with 200- or 400-mesh strainer. The filtered solution was centrifuged at 1000 rpm for 5 min. After removing the supernatants, the cells were washed once with culture medium compounded by DMEM/F12 (1:1 v/v) and 10% fetal bovine serum, re-suspended in the culture medium, and seeded in 6-well tissue culture plate or T25 tissue culture flasks with an appropriate density. After 24 hours incubation, the culture medium was changed to remove the non-adherent blood cells, endothelial cells, macrophages and other miscellaneous cells. After primary human endometrial stromal cells were grown to reach 90% confluence, the cells were digested with 0.25% trypsin for 4 to 6 min, and then subcultured with a split ratio of 1:2 to 1:3. Vimentin which expresses specifically in stromal cells was detected by immuno-fluorescence to measure the cell purity. The cells of purity >95% were used in the following experiments. Primary ectopic endometrial stromal cells of human were subcultured and the subcultured cells of the 3th to 6th passages were chosen as experimental subjects. The cells in logarithmic growth phase were […] and incubated in the cell culture plate at a density of 50%˜60% (i.e. 2×10^4 cells/well). After growing adherent on the wall for 24 hours, the cultured cells were divided into groups and each group was given different doses of PQQ. 20 μL MTT (5 mg/ml in PBS, pH=7.4) was added to each well at indicated time points. The cells were incubated in an incubator at 37° C. in a 5% CO2 atmosphere for 4 h. At the end of incubation, the culture supernatant in each cell was carefully aspirated away. 150 μL DMSO was added to each well. Then the wells were shaken with Orbital shaker for 10 min. The absorbance of each cell was detected at wavelength 490 nm. Finally, the cell proliferation curve was drawn. Primary ectopic endometrial stromal cells were cultured and the subcultured cells of the 3th to 6th passage were chosen as experimental subjects. The cells in logarithmic growth phase were […] and incubated in the cell culture plate at a of 50%˜60% (e.g. 2×10^4 cells/well). The cells grew adhering to the wall for 24 hours before being treated with drugs. The cells were divided into groups and each group was given different dose of PQQ. At indicated time point, 20 μL […] (5 mg/ml in PBS, pH=7.4) was added to every well. The cells were then incubated in an incubator at 37° C. in a 5% CO2 atmosphere for 4 h. After terminating incubation, the culture supernatant in each cell was carefully aspirated away, but formazan crystals should not be aspirated away in any case. 150 μL DMSO was added to each well respectively. All the wells were shaken with Orbital shaker for 10 min to make the crystals adequately solubilized. The absorbance of each cell was detected at wavelength 490 nm. Finally, the cell proliferation curve was drawn.

Test [4] has as its system superoxide anion radical (O2.-) in endometrial stromal cells. As to the kind of experiment: Determination of superoxide anion (O2.-) content. The settings on record: 18 h. In kind it is cell-based, human. The procedure: Superoxide anion (O2.^−) assay kit was purchased from Nanjing Jiancheng Bioengineering Insitute; Hydroxyl free radical assay kit was purchased from Shanghai Xinyu Biological Technology Co., Ltd., Hydrogen Peroxide Assay Kit was purchased from Beyotime Biotechnology Research Institute. The cells were cultured in 96-well cell culture plates for 24 h after the cells adhered to the plate. Three different concentrations PQQ (30 nm, 300 nm and 3 um) were added to the culture medium respectively. After additional 18 h incubation, the culture medium was discarded, and fresh culture medium supplemented with NBT (a final concentration of 1 mg/mL) was added to the cells. The cells were continually cultured for another 1 h at 37° C. The cells were fixed with 100% methanol, and naturally dried. 120 μL KOH (2 mol/L) and 140 μL DMSO were added to the cells. The optical density at wavelength 570 nm was measured.

Where [5] appears, read: 4 weeks in drinking water, PQQ (disodium salt) 1 mg/kg/day, NAC 10 mg/kg/day, P+N (H) 1+10, P+N (L) 0.2+5 mg/kg/day.

As for `O=C(O)c1cc(C(=O)O)c2c(n1)C(=O)C(=O)c1cc(C(=O)O)[nH]c1-2` [PQQ, pyrroloquinoline quinone], in test [1] (setting [5]), the “infiltration of endometrial glands, positive animals/total animals” value is on record as 9/20*#. For the same compound, the “infiltration of endometrial stroma, positive animals/total animals” value in test [1] (setting [5]) is listed as 10/20*#. For the same compound, the “number of animals with infiltration of endometrial stroma and glands compared with model control group” value in test [1] (after 4 weeks treatment, PQQ as disodium salt) is on record as “evidently lower than that in the model control group”. Also, the “relative content of hydrogen peroxide (H2O2)” value in test [2] (PQQ 300 nM) and in test [2] (PQQ 3 uM) was “significantly declined” in each case. In addition, the “cell proliferation compared with the control group” value in test [3] (PQQ 3 um, from 48 h after drug treatment, p<0.01) is given as “significantly inhibit cell proliferation”; in test [3] (PQQ 30 nm, p>0.05), “a certain inhibitory effect, but not significant”; in test [3] (PQQ 300 nm, from 48 h after drug treatment, p<0.01), “significantly inhibit cell proliferation”. The “relative content of superoxide anion radical (O2.-)” value in test [4] (PQQ 300 nM) and in test [4] (PQQ 3 uM) was “significantly declined” throughout.
